Results on 24 compounds are retold here after patent US9796700B2 (Celgene CAR LLC, priority 2013, dated 2017).

Where only a bound is given, the exact number is not on record here.

In general, IC50 refers to the concentration that inhibits the measured activity by half.

One experiment concerns the target MEK1 activated ERK1 (Homo sapiens (Human), UniProt P27361). As to the kind of experiment: Omnia continuous-read kinase assay for potency against MEK1 activated ERK1. The format is biochemical. Particulars: MEK1 activated ERK1, WT, ATP at KM. The method, boiled down: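 Apparent IC50 came from initial reaction slopes (RFU vs time) plotted against log inhibitor with a variable-slope fit. Reactions were started with ERK1 (4 nM final) added to 50 μM ATP, roughly at its appKM, and 10 μM Sox-conjugated ST17 peptide in 20 mM Tris pH 7.5, 5 mM MgCl2. Fluorescence was monitored every 71 seconds.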

For the next experiment, the target named is Erk1 (Homo sapiens (Human), UniProt P27361). Kind of experiment: Protein Mass Modification Assay (intact protein MALDI). In kind it is binding. In outline:
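Percent covalent modification comes from the intact-protein MALDI centroid mass shift, treated versus control, divided by compound MW. Before analysis, human Erk1 was exposed to compound at 10-fold excess over protein for 60 min at room temperature.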

Sequence of MEK1 activated ERK1 (P27361 whole entry): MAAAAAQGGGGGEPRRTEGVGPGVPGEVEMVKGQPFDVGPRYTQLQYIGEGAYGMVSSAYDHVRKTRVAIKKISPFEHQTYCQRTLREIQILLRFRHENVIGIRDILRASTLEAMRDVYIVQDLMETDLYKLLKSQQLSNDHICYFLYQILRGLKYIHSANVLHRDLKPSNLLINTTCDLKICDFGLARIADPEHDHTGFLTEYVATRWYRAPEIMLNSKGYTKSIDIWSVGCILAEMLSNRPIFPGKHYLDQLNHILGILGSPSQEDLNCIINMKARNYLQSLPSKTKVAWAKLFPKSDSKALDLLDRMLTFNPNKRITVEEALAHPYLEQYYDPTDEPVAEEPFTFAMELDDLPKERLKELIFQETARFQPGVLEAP
Sequence of Erk1 (P27361 whole entry, looked up): as the sequence (P27361 whole entry) above

With `C=CC(=O)Nc1cc(C)ccc1Nc1nc(N[C@H]2CCCN(S(=O)(=O)C=C)C2)ncc1C(F)(F)F` [Compound I-277, (S)—N-(5-Methyl-2-((5-(trifluoromethyl)-2-((1-(vinylsulfonyl)piperidin-3-yl)amino)pyrimidin-4-yl)amino)phenyl)acrylamide], on MEK1 activated ERK1, the IC50 was greater than 1000 nM. The “ERK1 Mass Mod (%)” value at Erk1 is on record as “E (provided a mass modification of ≧70%)”.
`C=CC(=O)Nc1cc(C)ccc1Nc1nc(Nc2cc(OC)ncc2C)ncc1C(F)(F)F` [Compound I-90, N-(2-((2-((2-Methoxy-5-methylpyridin-4-yl)amino)-5-(trifluoromethyl)pyrimidin-4-yl)amino)-5-methylphenyl)acrylamide]: at MEK1 activated ERK1, the IC50 is less than 100 nM. For the same compound, the “ERK1 Mass Mod (%)” value at Erk1 is listed as “E (provided a mass modification of ≧70%)”.
For the compound `C=C(C)S(=O)(=O)Nc1cc(F)ccc1Nc1nc(N[C@H]2CCCN(C(=O)CO)C2)ncc1C(F)(F)F` [Compound I-54, (S)—N-(5-Fluoro-2-((2-((1-(2-hydroxyacetyl)piperidin-3-yl)amino)-5-(trifluoromethyl)pyrimidin-4-yl)amino)phenyl)prop-1-ene-2-sulfonamide], the IC50 at MEK1 activated ERK1 is less than 100 nM. In addition, the “ERK1 Mass Mod (%)” value at Erk1 was “G (proived a mass modification ≦30%)”.
As for `C=CC(=O)Nc1ccccc1Nc1nc(N[C@@H]2CCN(C(=O)CO)C2)ncc1C(F)(F)F` [Compound I-62, (R)—N-(2-((2-((1-(2-Hydroxyacetyl)pyrrolidin-3-yl)amino)-5-(trifluoromethyl)pyrimidin-4-yl)amino)phenyl)acrylamide], the IC50 at MEK1 activated ERK1 is greater than 1000 nM. Also, the “ERK1 Mass Mod (%)” value at Erk1 is given as “F (provided a mass modification of 31-69%)”.
`C=CC(=O)Nc1ccccc1Nc1nc(Nc2ccc(NC(C)=O)cc2C(F)(F)F)ncc1Cl` [Compound I-150, N-(2-((2-((4-acetamido-2-(trifluoromethyl)phenyl)amino)-5-chloropyrimidin-4-yl)amino)phenyl)acrylamide]: on MEK1 activated ERK1, the half-inhibitory concentration (IC50) was greater than 1000 nM. Also, the “ERK1 Mass Mod (%)” value at Erk1 is reported as “E (provided a mass modification of ≧70%)”.
`C=CC(=O)Nc1cc(F)ccc1Nc1nc(Nc2ccc(F)cc2C#N)ncc1Cl` [Compound I-221, N-(2-((5-chloro-2-((2-cyano-4-fluorophenyl)amino)pyrimidin-4-yl)amino)-5-fluorophenyl)acrylamide]: at MEK1 activated ERK1, the IC50 is less than 100 nM. The “ERK1 Mass Mod (%)” value on Erk1 is listed as “E (provided a mass modification of ≧70%)”.
Turning to `C=CC(=O)Nc1ccccc1Nc1nc(Nc2ccc(N3CCC[C@H]3CO)cc2C#N)ncc1Cl` [Compound I-160, (S)—N-(2-((5-chloro-2-((2-cyano-4-(2-(hydroxymethyl)pyrrolidin-1-yl)phenyl)amino)pyrimidin-4-yl)amino)phenyl)acrylamide], the IC50 on MEK1 activated ERK1 is greater than 1000 nM. Besides, at Erk1, the “ERK1 Mass Mod (%)” value is recorded as “G (proived a mass modification ≦30%)”.
For `C=CC(=O)Nc1ccccc1Nc1nc(N[C@H]2CCCN(C(=O)OC(C)(C)C)C2)ncc1Cl` [Compound I-132, (S)-tert-butyl 3-((4-((2-acrylamidophenyl)amino)-5-chloropyrimidin-2-yl)amino) piperidine-1-carboxylate] the same measures were greater than 1000 nM and “E (provided a mass modification of ≧70%)”.
For the compound `C=CC(=O)Nc1cc(C)ccc1Nc1nc(Nc2nc(O)ncc2Cl)ncc1C(F)(F)F` [Compound I-363, N-(2-((2-((5-chloro-2-hydroxypyrimidin-4-yl)amino)-5-(trifluoromethyl)pyrimidin-4-yl)amino)-5-methylphenyl)acrylamide], the IC50 at MEK1 activated ERK1 was greater than 1000 nM. The “ERK1 Mass Mod (%)” value on Erk1 is recorded as “E (provided a mass modification of ≧70%)”.
As to `C=CC(=O)N[C@H]1CCCC1Nc1nc(N[C@H]2CCCN(C(C)=O)C2)ncc1C(F)(F)F` (stereo in doubt) [Compound I-24, N-((1S,2S)-2-((2-(((S)-1-Acetylpiperidin-3-yl)amino)-5-(trifluoromethyl)pyrimidin-4-yl)amino)cyclopentyl)acrylamide], the IC50 at MEK1 activated ERK1 is greater than 1000 nM. Besides, the “ERK1 Mass Mod (%)” value at Erk1 is “G (proived a mass modification ≦30%)”.
As for `C=CC(=O)Nc1cc(C)ccc1Nc1nc(Nc2cc(OC)nc(N3CCC(O)CC3)c2)ncc1C(F)(F)F` [Compound I-332, N-(2-((2-((2-(4-hydroxypiperidin-1-yl)-6-methoxypyridin-4-yl)amino)-5-(trifluoromethyl)pyrimidin-4-yl)amino)-5-methylphenyl)acrylamide], at MEK1 activated ERK1, the concentration for half-maximal inhibition (IC50) was greater than 1000 nM. Further, on Erk1, the “ERK1 Mass Mod (%)” value is reported as “E (provided a mass modification of ≧70%)”.
On the same counts, the results for `C=CC(=O)Nc1cc(OC)ccc1Nc1nc(Nc2ccc(N3CCNCC3)cc2C#N)ncc1Cl` [Compound I-161, N-(2-((5-chloro-2-((2-cyano-4-(piperazin-1-yl)phenyl)amino)pyrimidin-4-yl)amino)-5-methoxyphenyl)acrylamide] are greater than 1000 nM and “G (proived a mass modification ≦30%)”.
For `C=CC(=O)Nc1cc(C)ccc1Nc1nc(Nc2cc(OC)nc(N3CCN(C(C)=O)CC3)c2)ncc1Cl` [Compound I-296, N-(2-((2-((2-(4-acetylpiperazin-1-yl)-6-methoxypyridin-4-yl)amino)-5-chloropyrimidin-4-yl)amino)-5-methylphenyl)acrylamide], the IC50 at MEK1 activated ERK1 is less than 100 nM. For the same compound, the “ERK1 Mass Mod (%)” value at Erk1 is “E (provided a mass modification of ≧70%)”.
On to `C=CC(=O)Nc1cc(C)ccc1Nc1nc(Nc2nc(OC)ccc2Cl)ncc1C(F)(F)F` [Compound I-360, N-(2-((2-((3-chloro-6-methoxypyridin-2-yl)amino)-5-(trifluoromethyl)pyrimidin-4-yl)amino)-5-methylphenyl)acrylamide], for which the half-maximal inhibitory concentration (IC50) on MEK1 activated ERK1 is greater than 1000 nM. For the same compound, the “ERK1 Mass Mod (%)” value on Erk1 is on record as “E (provided a mass modification of ≧70%)”.
In the case of `C=CC(=O)Nc1cc(OC)ccc1Nc1nc(Nc2cc(OC)ncc2C)ncc1C(F)(F)F` [Compound I-284, N-(5-Methoxy-2-((2-((2-methoxy-5-methylpyridin-4-yl)amino)-5-(trifluoromethyl)pyrimidin-4-yl)amino)phenyl)acrylamide], the IC50 at MEK1 activated ERK1 was less than 100 nM. Further, the “ERK1 Mass Mod (%)” value at Erk1 is recorded as “E (provided a mass modification of ≧70%)”.
In the case of `C=CC(=O)Nc1ccccc1Nc1nc(N[C@H]2CCCN(C(=O)[C@@H](C)O)C2)ncc1Cl` [Compound I-134, N-(2-((5-chloro-2-(((S)-1-((R)-2-hydroxypropanoyl)piperidin-3-yl)amino)pyrimidin-4-yl)amino)phenyl)acrylamide], at MEK1 activated ERK1, the IC50 is less than 100 nM. In addition, at Erk1, the “ERK1 Mass Mod (%)” value is on record as “E (provided a mass modification of ≧70%)”.
On to `C=CC(=O)Nc1cc(C)ccc1Nc1nc(N[C@H]2CCCN(C(=O)CN)C2)ncc1C(F)(F)F` [Compound I-42, (S)—N-(2-((2-((1-(2-Aminoacetyl)piperidin-3-yl)amino)-5-(trifluoromethyl)pyrimidin-4-yl)amino)-5-methylphenyl)acrylamide], for which, at MEK1 activated ERK1, the IC50 is less than 100 nM. Further, the “ERK1 Mass Mod (%)” value on Erk1 is given as “E (provided a mass modification of ≧70%)”.
For `CC(C)=CC(=O)c1ccccc1Oc1nc(Nc2ccc(F)cc2C)ncc1Cl` [Compound I-222, 1-(2-((5-chloro-2-((4-fluoro-2-methylphenyl)amino)pyrimidin-4-yl)oxy)phenyl)-3-methylbut-2-en-1-one], the IC50 on MEK1 activated ERK1 is greater than 1000 nM. Besides, the “ERK1 Mass Mod (%)” value at Erk1 is “G (proived a mass modification ≦30%)”.
As to `C=CC(=O)Nc1ccccc1Nc1nc(N[C@@H]2CCC[C@H](C(N)=O)C2)ncc1C(F)(F)F` [Compound I-7, (1S,3R)-3-((4-((2-acrylamidophenyl)amino)-5-(trifluoromethyl)pyrimidin-2-yl)amino)cyclohexanecarboxamide], at MEK1 activated ERK1, the IC50 was less than 100 nM. In addition, the “ERK1 Mass Mod (%)” value on Erk1 was “E (provided a mass modification of ≧70%)”.
For the compound `CC(C)=CC(=O)c1ccccc1Oc1nc(Nc2cc(C(N)=O)ccc2C)ncc1Cl` [Compound I-223, 3-((5-chloro-4-(2-(3-methylbut-2-enoyl)phenoxy)pyrimidin-2-yl)amino)-4-methylbenzamide], at MEK1 activated ERK1, the IC50 was greater than 1000 nM. At Erk1, the “ERK1 Mass Mod (%)” value is on record as “E (provided a mass modification of ≧70%)”.
On the same counts, the results for `C=C(F)C(=O)Nc1ccccc1Nc1nc(N[C@H]2CCCN(C(C)=O)C2)ncc1C(F)(F)F` [Compound I-55, (S)—N-(2-((2-((1-Acetylpiperidin-3-yl)amino)-5-(trifluoromethyl)pyrimidin-4-yl)amino)phenyl)-2-fluoroacrylamide] are less than 100 nM and “E (provided a mass modification of ≧70%)”.
For the compound `C=CC(=O)Nc1cc(OC)ccc1Nc1nc(Nc2cc(OC)nc(N3CCN(C(C)=O)CC3)c2)ncc1C(F)(F)F` [Compound I-91, N-(2-((2-((2-(4-Acetylpiperazin-1-yl)-6-methoxypyridin-4-yl)amino)-5-(trifluoromethyl)pyrimidin-4-yl)amino)-5-methoxyphenyl)acrylamide], the IC50 on MEK1 activated ERK1 is less than 100 nM. The “ERK1 Mass Mod (%)” value on Erk1 was “E (provided a mass modification of ≧70%)”.
Consider `C=CC(=O)Nc1ccccc1Nc1nc(N[C@H]2CCCN(C=O)C2)ncc1C(F)(F)F` [Compound I-9, (S)—N-(2-((2-((1-formylpiperidin-3-yl)amino)-5-(trifluoromethyl)pyrimidin-4-yl)amino)phenyl)acrylamide], for which the IC50 on MEK1 activated ERK1 is less than 100 nM. For the same compound, at Erk1, the “ERK1 Mass Mod (%)” value is reported as “E (provided a mass modification of ≧70%)”.
For `C=CC(=O)Nc1ccccc1Oc1nc(Nc2ccc(N3CCN(C(C)=O)CC3)cc2OC)ncc1C(N)=O` [Compound I-258, 2-((4-(4-acetylpiperazin-1-yl)-2-methoxyphenyl)amino)-4-(2-acrylamidophenoxy)pyrimidine-5-carboxamide] the same measures were less than 100 nM and “E (provided a mass modification of ≧70%)”.
